Read-outs that look alike come from different tables or passages of the source. Residues, ends and D or L forms follow the SMILES beside them. *: point of attachment. Cbz = O=C(OCc1ccccc1)*
How the values were obtained:
cruzain = settings: pH 7.5; ref Li et al., 2021; cited from earlier work
human cathepsin L [1] = target: T1, human cathepsin L (Homo sapiens, UniProt P07711); settings: for Ki: read-out: Ki* hCatL, after 30-min incubation, pH 5.5, fit of vs/v0 to Eq. 5; for fold more potent for human cathepsin L than for cruzain (Ki*): hCatL vs cruzain
Experimental: (§1) Recombinant proteases were obtained from the following vendors: recombinant human cathepsin L (Millipore Sigma, Athens Research and Technology, Inc.), and human liver cathepsin B (Millipore Sigma), which were used without further purification. […] These samples were then diluted into the same buffer to concentrations of ∼100 nM, and these dilutions were stored at 4°C and used daily until depletion.
(§2) For assays of cathepsin L and B, inhibitors were evaluated in 0.25-ml reaction mixtures containing a buffer of sodium acetate (pH 5.5), 1 mM CHAPS, 1 mM Na2EDTA, and 5 mM DTT at 25°C. The fluorogenic substrate Cbz-Phe-Arg-7-amino-4-methyl-coumarin (Z-FR-AMC) was dissolved in 100% DMSO, as were all inhibitors and aliquots of both substrates, and inhibitors were added to the reaction mixtures with final concentrations of DMSO of 10% (v/v). […] Formation of the fluorescent product AMC was monitored over 30–60-min time courses for reaction mixtures in 96-well black microplates (Greiner). Rates of peptidolysis of the dipeptide-AMC substrate(s) were measured on either a SpectraMax M2 (Molecular Devices) or a Synergy Mx (Biotek, Wisnooki, VT) microplate reader which measured the formation of fluorescence using an excitation wavelength of λex = 360 nm, with detection of emission at λem = 460 nm at ≥8-s intervals. Control samples excluded substrate. The measured relative fluorescence units (RFUs) of generated AMC were converted to reaction rates of μM/s by use of a standard curve of known AMC concentrations obtained for both plate readers.

SARS-CoV-2 3CL protease = SARS-CoV-2 3CL protease (Severe acute respiratory syndrome coronavirus 2, UniProt P0DTD1); test: Kinetic assay of SARS-CoV-2 3CL-PR inhibition (FRET substrate); format: biochemical; settings: after 30-min incubation; pH 7.2; read-out: Ki* 3CLpro
human cathepsin B = target: T2, human cathepsin B (Homo sapiens, UniProt P07858); test: Kinetic assay of human cathepsin B inhibition (Z-FR-AMC peptidolysis); format: biochemical; settings: after 30-min incubation; pH 5.5; read-out: Ki* hCatB
T2 construct: purchased Millipore Sigma; host or cells: human liver (so in the source)

[2] = test system: SARS-CoV-2-infected A549/ACE2 cells; test: microbe, parasite or virus in culture; format: cell-based
human cathepsin L [3] = target: T1, human cathepsin L; test: biochemical
Experimental: as §1, §2

[4] = test system: SARS-CoV-2-infected Vero E6 cells; test: Micro-neutralization assay, virus-induced cytopathic effect in Vero E6 cells; format: cell-based
[5] = test system: SARS-CoV-2-infected A549/ACE2 cells; settings: read-out: Anti-CoV-2 EC50 A549/ACE2 Cells, cited from earlier work
[6] = test system: SARS-CoV-2-infected Vero E6 cells; settings: cited from earlier work
[7] = Severe acute respiratory syndrome coronavirus 2, A549-ACE2, 96 h, read-out: Anti-CoV-2 EC50 A549/ACE2 Cells
[8] = Ki (initial EI complex), fit of vi/v0 vs. [I] to Eq. 4
[9] = Ki* hCatL, after 30-min incubation, pH 5.5, fit of vs/v0 to Eq. 5
[10] = Severe acute respiratory syndrome coronavirus 2, Vero C1008, 72 h, prevention of CPE, 3 days, read-out: Anti-CoV-2 EC50 Vero E6 Cells
[11] = previously reported, ref Li et al., 2021
[12] = Severe acute respiratory syndrome coronavirus 2, A549-ACE2, 96 h, prevention of CPE, 4 days, read-out: Anti-CoV-2 EC50 A549/ACE2 Cells
[13] = Severe acute respiratory syndrome coronavirus 2, A549-ACE2, read-out: EC50 A549/ACE2 cells

T1 sequence (P07711 114-333): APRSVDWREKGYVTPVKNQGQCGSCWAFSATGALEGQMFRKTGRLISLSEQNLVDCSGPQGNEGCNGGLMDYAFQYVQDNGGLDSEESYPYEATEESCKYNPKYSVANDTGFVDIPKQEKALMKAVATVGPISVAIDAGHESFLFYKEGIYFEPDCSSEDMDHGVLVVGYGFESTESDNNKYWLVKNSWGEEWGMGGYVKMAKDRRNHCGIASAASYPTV

Cc1ccc2c(c1)C[C@H](NC(=O)[C@H](Cc1ccccc1)NC(=O)OCc1ccccc1)C(O)O2 (stereo partly drawn) [Compound 4]
Ki (cruzain): 103 ± 5 nM
fold increase in Ki* compared to 2 (human cathepsin L [1]; cathepsin L): 2 fold
Ki (human cathepsin L [1]): 26 ± 0.9 nM
Ki (SARS-CoV-2 3CL protease): > 10000 nM
Ki (human cathepsin B): 6100 nM

O=C(N[C@@H](Cc1ccccc1)C(=O)N[C@H]1Cc2ccccc2OC1O)OCc1ccccc1 (stereo partly drawn) [Compound 2, Cbz-Phe-o-Tyr-CHO]
EC50 [2, 7]: > 20000 nM
Ki (cruzain): 49 ± 2 nM
fold faster k4 than aldehyde 1 (human cathepsin L [1]; conversion of EI* to EI): ~5 fold
fold more potent for human cathepsin L than for cruzain (Ki*) (human cathepsin L [1]): 3.9 fold
k4 (reversion of EI* to EI) (human cathepsin L [1]; intercept of kobs vs. [I], fit to Eq. 3): 0.0016 ± 0.0002 s⁻¹
fold less potent inhibitor of cathepsin L than 1 (Ki*) (human cathepsin L [1]; relative to aldehyde 1): 100 fold
Ki (human cathepsin L [3]; [8]): 54 ± 6 nM
Ki (human cathepsin L [3]; [9]): 12.6 ± 0.4 nM
Ki (human cathepsin L [3]; k4Ki/k3 ∼ Ki*, calculated from the Eq. 3 parameters): ~200 nM
Ki (SARS-CoV-2 3CL protease): > 10000 nM
Ki (human cathepsin B): 4500 nM
EC50 [4, 10]: 10000 ± 5000 nM

CC(C)[C@H](NC(=O)OCc1ccccc1)C(=O)N[C@@H](CC1CCCCC1)C(=O)N[C@H]1Cc2cccnc2OC1O (stereo partly drawn) [Compound 9]
Ki (human cathepsin L [3]; [9]): 22 ± 4 nM
Ki (SARS-CoV-2 3CL protease): 9 ± 2 nM
EC50 [5, 11]: 3750 nM
effect in SARS-CoV-2-infected Vero E6 cells [6, 11]: no effect

O=C[C@H](Cc1ccccc1)NC(=O)[C@H](Cc1ccccc1)NC(=O)OCc1ccccc1 [Compound 1, Cbz-Phe-Phe-CHO] (Cbz-Phe-Phe-aldehyde)
EC50 [2, 7]: > 20000 nM
Ki (cruzain): 0.44 ± 0.02 nM
fold more potent for human cathepsin L than for cruzain (Ki*) (human cathepsin L [1]): 3 fold
Ki (human cathepsin L [3]; [8]): 0.18 ± 0.22 nM
Ki (human cathepsin L [3]; [9]): 0.14 ± 0.01 nM
Ki (SARS-CoV-2 3CL protease): > 10000 nM
EC50 [4, 10]: 470 nM
EC50 ([4]; Severe acute respiratory syndrome coronavirus 2, Vero C1008, repeat of the experiment with a different sample of 1, read-out: Anti-CoV-2 EC50 Vero E6 Cells): 7500 nM

CC(C)C(=O)OC1Oc2ccccc2CC1NC(=O)C(Cc1ccccc1)NC(=O)N1CCN(C)CC1 (stereo not drawn) [Compound 12]
EC50 [2, 12]: 310 nM
EC50 [2, 13]: 156 nM
EC50 [4, 10]: 3750 nM
EC50 ([4]; prevention of CPE, 3 days, read-out: Anti-CoV-2 EC50 Vero E6 Cells): 4000 nM

O=C(N[C@@H](Cc1ccccc1)C(=O)N[C@H]1Cc2cc(Cl)ccc2OC1O)OCc1ccccc1 (stereo partly drawn) [Compound 5]
Ki (cruzain): 70 ± 10 nM
Ki (human cathepsin L [1]): 12.1 ± 0.3 nM
Ki (SARS-CoV-2 3CL protease): > 10000 nM
Ki (human cathepsin B): 1400 ± 100 nM

CC(C)(C)[C@H](NC(=O)C(F)(F)F)C(=O)N1C[C@H]2[C@@H]([C@H]1C(=O)N[C@H](C#N)C[C@@H]1CCNC1=O)C2(C)C [PF-07321332, reference compound]
EC50 [2, 7]: 470 nM
EC50 ([5]; ref Owen et al. (2021)): 77 nM
EC50 ([6]; ref Owen et al. (2021), read-out: Anti-CoV-2 EC50 Vero E6 Cells): 74 nM
EC50 [4, 10]: > 20000 nM

CC(=O)OC1Oc2ccccc2CC1NC(=O)C(Cc1ccccc1)NC(=O)N1CCN(C)CC1 (stereo not drawn) [Compound 10]
EC50 [2, 12]: 310 nM
EC50 [2, 13]: 312 nM
EC50 [4, 10]: 2500 nM

O=C(N[C@@H](Cc1ccccc1)C(=O)N[C@H]1Cc2cc(F)ccc2OC1O)OCc1ccccc1 (stereo partly drawn) [Compound 6]
Ki (cruzain): 48 ± 2 nM
Ki (human cathepsin L [1]): 10.3 ± 0.5 nM
Ki (SARS-CoV-2 3CL protease): > 10000 nM
Ki (human cathepsin B): 2300 nM
EC50 [4, 10]: 4000 nM

CN1CCN(C(=O)NC(Cc2ccccc2)C(=O)NC2Cc3ccccc3OC2O)CC1 (stereo not drawn) [Compound 8, NMe-Pip-Phe-o-Tyr-CHO]
anti-viral effect in infected A549/ACE2 cells ([2]; in words): no anti-viral effect
Ki (cruzain): 47 ± 2 nM
Ki (human cathepsin L [3]; [8]): 22 ± 1 nM
Ki (human cathepsin L [3]; [9]): 9 ± 0.4 nM
Ki (SARS-CoV-2 3CL protease): > 10000 nM
Ki (human cathepsin B): 1270 ± 70 nM
EC50 [4, 10]: 9000 ± 2000 nM

CN1CCN(C(=O)N[C@@H](Cc2ccccc2)C(=O)N[C@H](/C=C/S(=O)(=O)c2ccccc2)CCc2ccccc2)CC1 [Compound K777]
EC50 ([5]; ref Mellott et al. (2021)): < 78 nM
EC50 ([6]; previously found, ref Mellott et al., 2021, read-out: EC50 Vero E6 cells): 625 nM
EC50 ([6]; ref Mellott et al. (2021), read-out: Anti-CoV-2 EC50 Vero E6 Cells): 620 nM
EC50 ([4]; Severe acute respiratory syndrome coronavirus 2, Vero C1008, 72 h, read-out: Anti-CoV-2 EC50 Vero E6 Cells): 150 nM
EC50 ([4]; Severe acute respiratory syndrome coronavirus 2, Vero C1008, read-out: EC50 Vero E6 cells): 156 nM

COC(=O)c1ccc2c(c1)C[C@H](NC(=O)[C@H](Cc1ccccc1)NC(=O)OCc1ccccc1)C(O)O2 (stereo partly drawn) [Compound 7]
Ki (cruzain): 18 ± 0.5 nM
fold improved potency over 2 (human cathepsin L [1]; cathepsin L): 2.6 fold
Ki (human cathepsin L [1]): 4.8 ± 0.2 nM
Ki (SARS-CoV-2 3CL protease): > 10000 nM
Ki (human cathepsin B): 670 ± 30 nM
EC50 [4, 10]: 2500 nM

COc1ccc2c(c1)C[C@H](NC(=O)[C@H](Cc1ccccc1)NC(=O)OCc1ccccc1)C(O)O2 (stereo partly drawn) [Compound 3]
Ki (cruzain): 350 ± 30 nM
fold increase in Ki* compared to 2 (human cathepsin L [1]; cathepsin L): 1.4 fold
Ki (human cathepsin L [1]): 17 ± 0.9 nM
Ki (SARS-CoV-2 3CL protease): > 10000 nM
Ki (human cathepsin B): 5500 nM

CCC(=O)OC1Oc2ccccc2CC1NC(=O)C(Cc1ccccc1)NC(=O)N1CCN(C)CC1 (stereo not drawn) [Compound 11]
EC50 [2, 12]: 620 nM
EC50 [2, 13]: 625 nM
EC50 [4, 10]: 2500 nM
